Earlier results, collected in patent US20110252694A1, “COMPOSITIONS FOR DRIP FUMIGATION” (priority 2010, published 2011).

How the values were obtained:
[1] = tested on: plant; details: when used in effective concentrations
[2] = tested on: weeds, nematodes, and soil pathogens; details: compared with methyl bromide

CI [Methyl Iodide, methyl iodide]
plant toxicity [1]: does not result in plant toxicity | combating weeds, nematodes, and soil pathogens [2]: equal to or better than methyl bromide
